According to ChEMBL document CHEMBL1201862, “PubChem BioAssay data set” (2004):
Activity calls are given as the source filed them.

Tests used:
[1] = molecular target: T1, High affinity choline transporter 1 (Homo sapiens, UniProt Q9GZV3); test: CHT inhibitors, dose response, cell-based, 10-point CRC, membrane potential dye (AID 588401); assay type: functional;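 note: membrane potential dye fluorescence of choline-evoked depolarization via CHT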
T1 sequence (Q9GZV3 whole entry): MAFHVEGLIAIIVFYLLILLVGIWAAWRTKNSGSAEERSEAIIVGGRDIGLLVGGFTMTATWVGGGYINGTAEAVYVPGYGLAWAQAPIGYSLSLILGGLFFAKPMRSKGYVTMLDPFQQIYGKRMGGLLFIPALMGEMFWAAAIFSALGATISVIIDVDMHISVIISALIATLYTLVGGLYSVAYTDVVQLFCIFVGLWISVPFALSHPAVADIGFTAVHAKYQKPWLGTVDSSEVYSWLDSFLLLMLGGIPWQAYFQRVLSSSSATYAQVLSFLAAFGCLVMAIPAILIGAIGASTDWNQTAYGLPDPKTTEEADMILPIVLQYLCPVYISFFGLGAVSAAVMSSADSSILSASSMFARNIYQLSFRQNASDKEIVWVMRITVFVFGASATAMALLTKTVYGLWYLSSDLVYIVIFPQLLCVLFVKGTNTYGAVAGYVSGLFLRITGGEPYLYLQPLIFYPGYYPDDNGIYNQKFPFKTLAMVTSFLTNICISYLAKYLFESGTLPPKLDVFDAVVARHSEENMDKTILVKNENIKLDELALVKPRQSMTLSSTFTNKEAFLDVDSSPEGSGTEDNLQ

[2] = molecular target: T1, High affinity choline transporter 1; test: CHT inhibitors, dose response, cell-based, 5-point CRC, membrane potential dye (AID 504840); assay type: functional
[3] = molecular target: T2, DNA dC->dU-editing enzyme APOBEC-3A (Homo sapiens, UniProt P31941); test: Dose Response confirmation of small molecule APOBEC3A DNA Deaminase Inhibitors via a fluorescence-based single-stranded DNA deaminase assay. [Related pubchem assays (depositor defined):AID493011, AID493024]; assay type: functional
[4] = molecular target: T3, DNA dC->dU-editing enzyme APOBEC-3G (Homo sapiens, UniProt Q9HC16); test: APOBEC3G deaminase inhibitors, SAR follow-up, biochemical, fluorescence, single-stranded DNA substrate (AID 602136); assay type: functional; conditions: read-out: IC50_Mean
[5] = molecular target: Intestinal-type alkaline phosphatase (Homo sapiens, UniProt P09923); test: inhibition of human intestinal alkaline phosphatase – biochemical, dose response (AID 488876); assay type: functional
[6] = molecular target: T4, Alkaline phosphatase, tissue-nonspecific isozyme (Homo sapiens, UniProt P05186); test: TNAP enzyme inhibition by screening hits, dose response, selectivity assay for mouse IAP inhibitor project, biochemical, human TNAP, uHTS hits (AID 488906); assay type: functional
T4 sequence (P05186 whole entry): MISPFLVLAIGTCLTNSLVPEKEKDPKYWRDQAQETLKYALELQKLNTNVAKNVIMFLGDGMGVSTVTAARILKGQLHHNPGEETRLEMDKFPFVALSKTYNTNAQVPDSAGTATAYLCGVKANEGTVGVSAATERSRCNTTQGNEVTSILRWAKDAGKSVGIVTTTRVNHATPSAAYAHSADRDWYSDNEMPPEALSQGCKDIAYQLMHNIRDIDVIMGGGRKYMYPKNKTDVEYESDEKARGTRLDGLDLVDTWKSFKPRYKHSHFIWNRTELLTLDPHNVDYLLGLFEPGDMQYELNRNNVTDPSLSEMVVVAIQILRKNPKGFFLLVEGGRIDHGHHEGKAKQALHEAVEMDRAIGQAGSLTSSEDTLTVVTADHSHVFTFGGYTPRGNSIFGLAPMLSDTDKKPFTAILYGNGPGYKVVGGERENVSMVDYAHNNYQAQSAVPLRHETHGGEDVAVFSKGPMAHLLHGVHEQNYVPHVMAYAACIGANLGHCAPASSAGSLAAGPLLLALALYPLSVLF

[7] = molecular target: Intestinal-type alkaline phosphatase (Mus musculus, UniProt P24822); test: PubChem AID 488785; assay type: functional
[8] = molecular target: T2, DNA dC->dU-editing enzyme APOBEC-3A; test: SAR analysis of small molecule inhibitors of APOBEC3A DNA Deaminase via a fluorescence-based single-stranded DNA deaminase assay - Set 2.; assay type: functional; conditions: read-out: IC50_Mean
[9] = molecular target: T5, Microphthalmia-associated transcription factor (Homo sapiens, UniProt O75030); test: TRPM1 promoter luciferase signal decrease, dose response, MITF inhibitor project, cell-based, SK-MEL-5, cherry-picked, set 3 (AID 493073); assay type: functional
T5 sequence (O75030 whole entry): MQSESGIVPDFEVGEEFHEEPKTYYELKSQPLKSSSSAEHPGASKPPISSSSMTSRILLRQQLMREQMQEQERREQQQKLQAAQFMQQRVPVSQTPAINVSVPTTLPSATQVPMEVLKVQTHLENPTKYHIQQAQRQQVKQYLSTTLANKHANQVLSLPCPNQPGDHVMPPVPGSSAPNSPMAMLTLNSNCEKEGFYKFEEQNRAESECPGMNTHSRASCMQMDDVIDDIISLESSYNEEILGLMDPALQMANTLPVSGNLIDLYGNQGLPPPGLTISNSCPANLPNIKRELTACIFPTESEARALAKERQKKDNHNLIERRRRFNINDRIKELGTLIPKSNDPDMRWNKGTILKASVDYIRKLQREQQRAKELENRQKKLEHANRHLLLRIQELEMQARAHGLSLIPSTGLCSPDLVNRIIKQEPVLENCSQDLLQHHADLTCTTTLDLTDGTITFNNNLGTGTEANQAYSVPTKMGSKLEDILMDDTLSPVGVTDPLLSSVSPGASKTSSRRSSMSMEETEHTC

[10] = molecular target: T3, DNA dC->dU-editing enzyme APOBEC-3G; test: SAR analysis of small molecule inhibitors of APOBEC3G DNA Deaminase via a fluorescence-based single-stranded DNA deaminase assay - Set 2.; assay type: functional; conditions: read-out: IC50_Mean
[11] = molecular target: T3, DNA dC->dU-editing enzyme APOBEC-3G; assay type: functional
[12] = molecular target: T2, DNA dC->dU-editing enzyme APOBEC-3A; test: SAR analysis of small molecule inhibitors of APOBEC3A DNA Deaminase via a fluorescence-based single-stranded DNA deaminase assay.; assay type: functional; conditions: read-out: IC50_Mean
[13] = C. albicans growth with fluconazole, confirmation, fluorescence, retest (AID 2467); assay type: functional, cell-based
Melanocortin receptor 4 = Melanocortin receptor 4 (Homo sapiens, UniProt P32245); test: MC4R antagonist potency on cAMP, dose response, cell-based, TR-FRET, biased antagonists (AID 602298); assay type: functional;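 note: antagonist potency against agonist-stimulated cAMP production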
HEK293 [14] = test: cells; conditions: Homo sapiens
[15] = growth suppression of beta-catenin-knockout colon cells, dose response, cell-based, HCT116, human colon tumor (AID 1045); assay type: functional;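 note: HCT116 colon tumor cells with beta catenin knocked out; cells exposed to compound for 60 hours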
[16] = molecular target: T6, Replicative DNA helicase DnaB (Mycobacterium tuberculosis, UniProt P9WMR3); test: DnaB intein splicing inhibitors, dose response, biochemical, cell-free fluorescence (AID 449749); assay type: functional
T6 sequence (P9WMR3 whole entry): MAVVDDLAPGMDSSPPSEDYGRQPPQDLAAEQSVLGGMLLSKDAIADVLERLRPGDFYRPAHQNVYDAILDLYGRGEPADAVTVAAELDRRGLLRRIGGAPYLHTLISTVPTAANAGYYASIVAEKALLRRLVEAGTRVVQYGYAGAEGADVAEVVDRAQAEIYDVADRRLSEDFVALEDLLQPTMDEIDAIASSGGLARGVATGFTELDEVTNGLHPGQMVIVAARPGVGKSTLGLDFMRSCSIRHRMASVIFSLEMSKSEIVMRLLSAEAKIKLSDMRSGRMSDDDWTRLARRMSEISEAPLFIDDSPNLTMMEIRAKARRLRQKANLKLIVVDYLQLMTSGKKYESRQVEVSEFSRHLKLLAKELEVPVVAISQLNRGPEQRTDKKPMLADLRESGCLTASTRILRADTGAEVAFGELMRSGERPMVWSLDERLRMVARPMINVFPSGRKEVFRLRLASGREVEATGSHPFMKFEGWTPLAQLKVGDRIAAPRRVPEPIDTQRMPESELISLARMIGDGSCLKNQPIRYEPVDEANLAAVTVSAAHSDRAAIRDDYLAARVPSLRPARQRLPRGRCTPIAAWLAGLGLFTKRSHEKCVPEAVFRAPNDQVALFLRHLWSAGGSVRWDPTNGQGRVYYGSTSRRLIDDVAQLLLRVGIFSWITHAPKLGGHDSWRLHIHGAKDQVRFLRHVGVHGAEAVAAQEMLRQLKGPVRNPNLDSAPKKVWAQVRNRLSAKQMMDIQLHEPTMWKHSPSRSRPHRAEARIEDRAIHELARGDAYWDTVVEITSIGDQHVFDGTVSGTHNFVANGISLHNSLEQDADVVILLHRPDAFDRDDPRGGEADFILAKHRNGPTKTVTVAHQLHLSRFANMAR

[17] = control 3'UTR Renilla luciferase suppression, dose response, counter-screen for Shn3 inhibitor project, cell-based, Clone20-Shn3RL, cherry-picked (AID 624133); assay type: functional
HEK293 [18] = test: cells; conditions: Homo sapiens; remark: listed apart in the source
[19] = NIH-3T3 fibroblast cytotoxicity, dose response, cytotoxicity control, cell-based, fluorescence, Alamar Blue, secondary assay (AID 2327); assay type: functional;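 note: NIH-3T3 mouse fibroblasts cultured with fluconazole at 8 µg/mL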
[20] = molecular target: Heat shock protein HSP 90-alpha (Homo sapiens, UniProt P07900); assay type: functional, organism-based
Protein RecA = molecular target: T7, Protein RecA (Mycobacterium tuberculosis, UniProt P9WHJ3); test: Fluorescence Cell-Free Homogeneous Dose Retest to Identify Inhibitors of RecA-Intein Splicing Activity. [Related pubchem assays (depositor defined):AID2097, AID2223, AID489010, AID492950]; assay type: functional
T7 sequence (P9WHJ3 whole entry): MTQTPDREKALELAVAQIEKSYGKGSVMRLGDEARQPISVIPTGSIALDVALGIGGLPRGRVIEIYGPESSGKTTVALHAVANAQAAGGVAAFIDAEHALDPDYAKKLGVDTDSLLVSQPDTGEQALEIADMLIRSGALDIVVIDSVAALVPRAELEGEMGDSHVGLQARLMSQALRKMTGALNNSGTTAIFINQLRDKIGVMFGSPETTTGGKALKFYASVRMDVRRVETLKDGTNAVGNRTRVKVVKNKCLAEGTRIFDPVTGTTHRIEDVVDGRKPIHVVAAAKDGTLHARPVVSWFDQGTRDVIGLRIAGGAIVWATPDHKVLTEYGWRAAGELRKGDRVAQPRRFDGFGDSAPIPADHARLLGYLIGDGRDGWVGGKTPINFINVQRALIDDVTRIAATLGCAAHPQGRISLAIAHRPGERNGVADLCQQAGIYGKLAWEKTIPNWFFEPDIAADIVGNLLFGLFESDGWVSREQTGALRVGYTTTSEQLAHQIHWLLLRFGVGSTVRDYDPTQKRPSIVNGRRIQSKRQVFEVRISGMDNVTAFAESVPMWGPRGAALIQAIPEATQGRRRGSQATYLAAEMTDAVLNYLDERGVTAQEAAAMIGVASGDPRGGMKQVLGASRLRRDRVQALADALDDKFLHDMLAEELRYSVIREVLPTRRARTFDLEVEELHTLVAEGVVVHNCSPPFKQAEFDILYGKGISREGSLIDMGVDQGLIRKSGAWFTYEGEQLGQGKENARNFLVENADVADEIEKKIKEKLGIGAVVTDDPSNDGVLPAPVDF

[21] = growth suppression of PTEN-null colon cells, dose response, cell-based, HCT116 PTEN knockout (AID 1047); assay type: functional;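 note: HCT116 colon tumor cells with PTEN knocked out; cells exposed to compound for 60 hours before readout; potency for loss of cell viability measured by luminescence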
[22] = Shn3 3'UTR reporter inhibitors, dose response, cell-based, Clone20 osteoblasts, firefly luciferase, cherry-picked (AID 624132); assay type: functional;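 note: firefly luciferase luminescence from reporter carrying the Shn3 3'UTR in osteoblasts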
[23] = nonselective inhibitors of cellular cAMP signaling, dose response, counter-screen for MC4R biased antagonist project, cell-based, TR-FRET cAMP detection (AID 602305); assay type: functional;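 note: U2OS cells stimulated with forskolin near its EC80 as the cAMP inducer; potency is for inhibition of forskolin-stimulated cAMP signaling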

T3 sequence (Q9HC16 whole entry): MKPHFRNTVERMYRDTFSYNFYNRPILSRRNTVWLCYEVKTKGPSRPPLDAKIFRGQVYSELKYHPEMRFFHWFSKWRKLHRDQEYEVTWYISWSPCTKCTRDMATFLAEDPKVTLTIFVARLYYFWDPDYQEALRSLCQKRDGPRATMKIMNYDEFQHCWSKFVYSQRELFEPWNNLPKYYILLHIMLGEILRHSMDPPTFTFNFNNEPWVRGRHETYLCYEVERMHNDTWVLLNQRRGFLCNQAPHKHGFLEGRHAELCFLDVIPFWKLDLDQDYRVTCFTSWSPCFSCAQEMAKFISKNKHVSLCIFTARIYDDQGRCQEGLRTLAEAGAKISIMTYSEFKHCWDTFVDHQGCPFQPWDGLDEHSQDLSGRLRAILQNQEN
T2 sequence (P31941 whole entry): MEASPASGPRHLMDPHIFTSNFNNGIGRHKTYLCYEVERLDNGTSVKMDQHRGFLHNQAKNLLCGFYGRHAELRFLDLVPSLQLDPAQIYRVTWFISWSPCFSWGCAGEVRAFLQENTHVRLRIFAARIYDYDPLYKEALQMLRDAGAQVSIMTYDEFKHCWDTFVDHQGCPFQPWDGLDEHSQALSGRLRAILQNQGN
Sequence of Melanocortin receptor 4 (P32245 whole entry): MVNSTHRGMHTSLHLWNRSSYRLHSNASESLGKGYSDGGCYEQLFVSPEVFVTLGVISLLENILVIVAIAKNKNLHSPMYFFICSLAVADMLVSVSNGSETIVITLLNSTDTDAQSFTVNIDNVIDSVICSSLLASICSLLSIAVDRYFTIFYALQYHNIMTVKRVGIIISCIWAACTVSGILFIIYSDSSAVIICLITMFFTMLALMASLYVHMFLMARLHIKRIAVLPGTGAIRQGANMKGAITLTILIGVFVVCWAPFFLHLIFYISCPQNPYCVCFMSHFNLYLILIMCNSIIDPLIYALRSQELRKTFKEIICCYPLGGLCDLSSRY
Sequence of Intestinal-type alkaline phosphatase (Homo sapiens, UniProt P09923) (P09923 whole entry): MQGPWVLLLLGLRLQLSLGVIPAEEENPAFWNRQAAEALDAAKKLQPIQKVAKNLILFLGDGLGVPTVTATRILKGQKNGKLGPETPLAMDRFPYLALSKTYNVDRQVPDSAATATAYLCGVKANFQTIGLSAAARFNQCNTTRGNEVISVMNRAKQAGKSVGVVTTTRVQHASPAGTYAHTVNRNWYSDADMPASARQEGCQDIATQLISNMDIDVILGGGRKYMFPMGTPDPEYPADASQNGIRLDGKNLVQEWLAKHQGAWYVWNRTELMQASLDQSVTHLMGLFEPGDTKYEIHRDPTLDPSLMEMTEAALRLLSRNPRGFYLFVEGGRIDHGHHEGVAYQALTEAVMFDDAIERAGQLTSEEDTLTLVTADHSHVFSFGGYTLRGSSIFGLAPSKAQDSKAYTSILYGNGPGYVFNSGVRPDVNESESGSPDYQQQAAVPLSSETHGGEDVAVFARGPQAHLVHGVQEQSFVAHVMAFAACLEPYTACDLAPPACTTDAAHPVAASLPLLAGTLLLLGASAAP
Sequence of Intestinal-type alkaline phosphatase (Mus musculus, UniProt P24822) (P24822 whole entry): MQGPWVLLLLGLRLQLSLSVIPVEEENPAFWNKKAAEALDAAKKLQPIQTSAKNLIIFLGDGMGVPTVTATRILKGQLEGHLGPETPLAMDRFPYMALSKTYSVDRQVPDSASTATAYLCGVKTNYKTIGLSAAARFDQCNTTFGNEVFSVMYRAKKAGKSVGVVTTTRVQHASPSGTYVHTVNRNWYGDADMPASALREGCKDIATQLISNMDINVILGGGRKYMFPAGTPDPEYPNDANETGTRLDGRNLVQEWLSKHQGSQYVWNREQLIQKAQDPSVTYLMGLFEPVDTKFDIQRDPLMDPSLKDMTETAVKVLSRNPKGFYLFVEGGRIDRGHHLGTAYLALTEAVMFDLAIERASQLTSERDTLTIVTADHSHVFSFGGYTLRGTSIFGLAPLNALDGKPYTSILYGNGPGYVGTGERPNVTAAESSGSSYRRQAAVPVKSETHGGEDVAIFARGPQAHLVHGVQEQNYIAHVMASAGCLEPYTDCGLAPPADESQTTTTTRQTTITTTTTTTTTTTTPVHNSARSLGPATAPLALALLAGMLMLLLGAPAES

CC1CCCCC1NC(=O)C1CCCN(S(=O)(=O)c2ccc(-n3cnnn3)cc2)C1 (stereo not given)
active: IC50 [1] 3.98 µM | IC50 [2] 5.75 µM

Cn1nc([N+](=O)[O-])nc1S(C)(=O)=O
active: IC50 [3] 4.14 µM | IC50 [6] 74.1 µM | IC50 [7] 5.66 µM | AC50 [9] 9.2 µM | IC50 [11] 65.5 µM
inactive: IC50 [4] 27.2 µM | IC50 [5] > 100 µM | IC50 [8] 13.1 µM | IC50 [10] 24.1 µM | IC50 [12] 14.4 µM

O=[N+]([O-])c1cc(S(=O)(=O)C(F)(F)F)ccc1Sc1nc2ccccc2s1
> 38 µM (not active): EC50 [13]
inactive: EC50 (HEK293 [14]) > 59.6 µM | EC50 (HEK293 [18]) > 59.6 µM | IC50 [23] > 64.6 µM
active: IC50 (Melanocortin receptor 4) > 2.39 µM | EC50 [15] 7.45 µM | AC50 [16] 1.75 µM | AC50 [17] 15.4 µM | EC50 [19] 5 µM | AC50 [20] 1.75 µM | EC50 (Protein RecA) 0.249 µM | EC50 [21] 8.04 µM | AC50 [22] 2.45 µM
